Source: patent US9814712B2, “(S)-pirlindole and its pharmaceutically acceptable salts for use in medicine” (TECNIMEDE SOCIEDADE TECNICO-MEDICINAL S.A., priority 2014, dated 2017)

Tested on: spared nerve injury (SNI) model, mechanical allodynia
Test: Von Frey test of mechanical allodynia in the spared nerve injury (SNI) model
Format: in vivo, Sprague-Dawley rats
Details: SNI rats, 20 mg/kg i.p. daily, Von Frey monofilaments, naive and sham 15 g
Text: For this purpose, the inventors have chosen the animal model designed by Decosterd and Woolf (Pain, 2000), which developed a partial denervation model, technically easy to perform and subject to minimal variability in the degree of damage produced. Most important was that this is a model that will enable a direct measurement of changes in both injured primary sensory neurons and in neighbouring intact sensory neurons so that their relative contribution to the pathophysiology of pain could be investigated. […] All procedures were performed on adult (200-250 g) male Sprague-Dawley rats. Under halothane (2%) anesthesia, the skin on the lateral surface of the thigh was incised and a section made directly through the biceps femoris muscle exposing the sciatic nerve and its three terminal branches: the sural, the common peroneal and the tibial nerves. The spared nerve injury procedure comprised an axotomy and ligation of the tibial and common peroneal nerves leaving the sural nerve intact. The common peroneal and the tibial nerves were tight-ligated with 5.0 silk and sectioned distal to the ligation, removing 2±4 mm of the distal nerve stump. Great care was taken to avoid any contact with or stretching of the intact sural nerve. Muscle and skin were closed in two layers. Sham controls involved exposure of the sciatic nerve and its branches without any lesion. The Von Frey test is a mechanical sensitivity assay that consists of thin calibrated plastic filaments, called Von Frey hairs, which are applied to the plantar surface of the hindpaw of the tested animal. The filaments present different degrees of stiffness that are used to determine the one that evokes a hindpaw withdrawal. Each filament, starting with the less stiff, is applied to the plantar surface of both hindpaws of each rat. The process is repeated with Von Frey hairs of increasing stiffness until one evokes a reflexive and sustained hindpaw withdrawal. This is defined as the withdrawal threshold, is measured in grams and is an indicator of mechanical allodynia. In the present example the animals were divided in 6 (six) groups (n=7 per group): naive control (negative control), sham control, SNI plus water (positive control), SNI plus (rac)-pirlindole 20 mg/kg, SNI plus (S)-pirlindole 20 mg/kg, SNI plus (R)-pirlindole 20 mg/kg and. After the application of surgical procedure to the groups of sham control, SNI plus water (positive control), SNI plus (rac)-pirlindole, SNI plus (S)-pirlindole and SNI plus (R)-pirlindole, the animals were confined during a 7 weeks (7 wk) period aiming the full induction of mechanical allodynia. Following a 3 week (3 wk), treatment period was started and water or one of the test items (rac-pirlindole, S-pirlindole and R-pirlindole) were administered by intraperitoneal (ip) route, on a daily basis. At the 2nd and 3rd week of treatment the mechanical allodynia was tested. The animals were placed on an elevated wire grid and the plantar surface of the paw stimulated with a series of ascending force Von Frey monofilaments. The threshold was taken as the lowest force that evoked a brisk withdrawal response to one of the repetitive stimuli (Tal and Bennett, 1994). The lateral and medial plantar surfaces of the paw as well as its dorsal surface were tested.

[1] = wk2 of treatment, SNI plus water 0.41 g
[2] = wk3 of treatment, SNI plus water 0.14 g

SMILES	mean lowest force that evoked a brisk withdrawal response [1] [g]	mean lowest force that evoked a brisk withdrawal response [2] [g]
Cc1ccc2c(c1)c1c3n2CCNC3CCC1 (racemic) [(rac)-pirlindole, 2,3,3a,4,5,6-hexahydro-8 methyl-1H-pyrazino [3,2,1-j, k] carbazole]	3.50	2.08
Cc1ccc2c(c1)c1c3n2CCN[C@@H]3CCC1 [(R)-pirlindole]	3.08	1.39
Cc1ccc2c(c1)c1c3n2CCN[C@H]3CCC1 [(S)-pirlindole]	4.51	7.43
